This passage reports absorption maximum results from the Deep4Chem optical property database.

SMILES strings stand for the structures.

The nature of the data set: solvent given as SMILES.

On to `Cc1cc(C)c(B2c3cc(C(C)(C)C)ccc3-c3c(-c4ccccc4)ccc4cc(C(C)(C)C)cc2c34)c(C)c1`, for which, where the note is “in C1CCCCC1”, the absorption maximum was found to be 406 nm.

On to `Cc1ccc(OCc2cc(=O)oc3c2ccc2ccccc23)cc1`, for which the absorption maximum is reported as 352 nm (in C1CCOC1); 352 nm (in C1COCCO1); 351 nm (in CCOC(C)=O); 352 nm (in CO); 354 nm (in Cc1ccccc1); 354 nm (in ClCCl).

For `O=C([O-])c1c(Cl)c(Cl)c(Cl)c(Cl)c1-c1c2cc(I)c(=O)c(I)c-2oc2c(I)c([O-])c(I)cc12`, the absorption maximum is reported as 561 nm (in CC(C)O), 558 nm (in CCO), 556 nm (in CO) and 548 nm (in O).

With `COc1ccccc1C1=[N+]2C(=C(c3ccccc3)c3c4ccccc4c(-c4ccccc4OC)n3[B-]2(F)F)c2ccccc21`, under “in ClCCl”, the absorption maximum amounted to 617 nm.

In turn, `N#Cc1ccc(C#Cc2ccccc2C#N)cc1` returned an absorption maximum (in ClC(Cl)Cl) of 297 nm.

As to `CC(C)(C)c1cc2c3cc(C(C)(C)C)c(-c4cc5cc6c7cccc8cccc(c9cc(C(C)(C)C)cc(c5cc4C(C)(C)C)c96)c87)cc3cc3c4cccc5cccc(c(c1)c23)c54`, the absorption maximum (in CC1CCCCC1) was determined as 446 nm.

For the compound `O=C1c2cccc3c(-n4c5ccccc5c5ccccc54)ccc(c23)C(=O)N1C1CCCCC1`, the absorption maximum is, setting by setting: (in C1CCOC1) 407 nm; (in CCCCCC) 399 nm; (in ClC(Cl)Cl) 402 nm; (in ClCCl) 410 nm.

Take `COc1ccccc1C1=C2C=CC(=[N+](C)C)C=C2[Si](C)(C)c2cc(N(C)C)ccc21`: where the note is “in O”, the absorption maximum amounted to 649 nm.

Turning to `O=C(N/N=C/c1ccccc1O)c1cccc2ccccc12`, the absorption maximum runs as follows: (in C1CCOC1) 334 nm; (in CC#N) 332 nm; (in CC(C)=O) 343 nm; (in CCO) 400 nm; (in CN(C)C=O) 395 nm; (in CS(C)=O) 329 nm. Under “in ClCCl”, this compound came in with an absorption maximum of 328 nm.

With `COc1ccc(-c2c3ccccc3c(-c3ccc(OC)cc3)c3cc4ccccc4cc23)cc1`, for the setting “in ClCCl”, the absorption maximum is reported as 495 nm.

Regarding `COC(=O)C(NC(=O)OC(C)(C)C)c1ccc2oc(-c3ccc(C#N)cc3)nc2c1` (configuration not stated), the absorption maximum runs as follows: (in CC1CCCCC1) 337 nm; (in CC#N) 333 nm; (in CO) 317 nm.

`COC(=O)c1ccc(C#Cc2c3c(c4c(-c5ccccc5)c(-c5ccccc5)c(-c5ccccc5)c(-c5ccccc5)c4c2-c2ccc(C(=O)OC)cc2)CC(C(=O)OC)(C(=O)OC)C3)cc1` came in with an absorption maximum (in C1CCOC1) of 347.38 nm.

Turning to `O=P1(c2ccccc2)C(c2cccs2)=C(c2cccs2)c2ccccc21` (configuration not stated), the absorption maximum (in C1CCOC1) was found to be 368 nm.

On to `COc1ccc(C2=C(c3ccc(OC)cc3)c3cccc4c5c(cc(c34)O2)=NC2C=C(Br)C(Br)=CC2N=5)cc1` (configuration not stated), for which, where the note is “in ClCCl”, the absorption maximum is given as 526 nm.

The compound `COc1ccc(-n2nc(C#N)c(N3CCOCC3)n2)cc1` gave an absorption maximum (in CC#N) of 324 nm.

`COC(=O)C1=C(C(=O)OC)C2(c3ccccc3-c3c(C(=O)OC)cccc32)[C@@H](c2ccc(Cl)cc2)C=C2c3cc(OC)c(OC)cc3CCN21` (some centres not stated) came in with an absorption maximum (in ClCCl) of 311 nm.

On to `COc1ccc2c(c1)CCC1=C(c3ccccc3)C3=Nc4c(-c5ccccc5)c5c(n4[B-](F)(F)[N+]3=C12)-c1ccc(OC)cc1CC5`, for which the absorption maximum (in ClC(Cl)Cl) is listed as 740 nm.

Under “in CC1CCCO1”, `c1ccc2c(c1)-c1ccccc1C21c2ccccc2-c2cccnc21` had an absorption maximum of 313 nm.

For `COc1ccc(C#Cc2c3ccccc3c(C#Cc3ccc(OC)cc3)c3cc4sc(C)cc4cc23)cc1`, where the note is “in ClCCl”, the absorption maximum worked out at 520 nm.

Consider `CCN1CCN(c2ccc(/N=N/c3ccc(C(=O)OC)cc3)cc2)CC1`, for which the absorption maximum (in CCOC(C)=O) was determined as 419 nm.

Under “in ClC(Cl)Cl”, `C[Si]1(C)O[Si](C)(C)c2cc3cc4cc5c(cc4cc3cc21)C(=O)c1cc2cc3cc4c(cc3cc2cc1C5=O)[Si](C)(C)O[Si]4(C)C` registered an absorption maximum of 470 nm.

With `F[B-]1(F)N2C=CN=CC2=[N+]2[N+]1=Cc1c(-c3ccccc3)cc(-c3cccs3)n1[B-]2(F)F`, under “in ClCCl”, the absorption maximum turned out to be 533 nm.

Where the note is “in ClCCl”, `CCCCCCC1(CCCCCC)c2cc(-c3ccc(-c4ccc(-c5ccc(-c6ccc7c(c6)C(CCCCCC)(CCCCCC)c6cc(-n8c9ccc(-n%10c%11ccccc%11c%11ccccc%11%10)cc9c9cc(-n%10c%11ccccc%11c%11ccccc%11%10)ccc98)ccc6-7)s5)c5nsnc45)s3)ccc2-c2ccc(-n3c4ccc(-n5c6ccccc6c6ccccc65)cc4c4cc(-n5c6ccccc6c6ccccc65)ccc43)cc21` yielded an absorption maximum of 514 nm.

Regarding `N#Cc1c2oc3ccccc3oc2c(C#N)c2oc3ccccc3oc12`, where the note is “in ClC(Cl)Cl”, the absorption maximum is 430 nm.

Compound `CCCC1(CCC)c2cc(-c3ccc(-c4ccc(OC)cc4)o3)ccc2-c2ccc(-c3ccc(-c4ccc(OC)cc4)o3)cc21` came in with an absorption maximum (in C1CCCCC1) of 410 nm.

As for `CCC1=C(C)C(=O)n2c1cc1c(C)c(CCC(=O)OC)c(C)n1c2=O`, the absorption maximum is reported as 420 nm (in CC#N); 420 nm (in CC(C)=O); 424 nm (in CO); 425 nm (in CS(C)=O); 427 nm (in ClC(Cl)Cl); 420 nm (in c1ccccc1).

Turning to `COc1ccc2c3cccc4c(OC)ccc(c5cccc1c52)c43`, the absorption maximum reads like this: (in C1CCOC1) 458 nm; (in Cc1ccccc1) 459 nm; (in ClC(Cl)(Cl)Cl) 460 nm; (in ClC(Cl)Cl) 459 nm; (in ClCCl) 459 nm; (in c1ccncc1) 463 nm.

Under “in C1CCCCC1”, `CCCC1(CCC)c2ccccc2-c2ccc(-c3ccc4c(c3)C(CCC)(CCC)c3cc(-c5ccc6c(c5)C(CCC)(CCC)c5cc(-c7ccc8c(c7)C(CCC)(CCC)c7ccccc7-8)ccc5-6)ccc3-4)cc21` registered an absorption maximum of 360 nm.

As to `CCCC1(CCC)c2cc(-c3ccc(OC)cc3)ccc2-c2ccc(-c3ccc4c(c3)C(CCC)(CCC)c3cc(-c5ccc(OC)cc5)ccc3-4)cc21`, the absorption maximum (in C1CCCCC1) worked out at 350 nm.

As for `COC(=O)c1ccc(/N=N/c2cc3c4c(c2)CCCN4CCC3)cc1`, under “in CCOC(C)=O”, the absorption maximum is 474 nm.

Take `CCCCC1(c2ccccc2)Nc2c(-c3ccc(N(c4ccccc4)c4ccccc4)cc3)ccc(-c3ccc(N(c4ccccc4)c4ccccc4)cc3)c2N=C1c1ccccc1` (configuration not stated): the absorption maximum (in ClC(Cl)Cl) is 370 nm.

For the compound `CCCCOc1ccc(-c2oc3cc4n(c3c2-c2ccc(OCCCC)cc2)[B-](F)(F)[N+]2=Cc3cc5oc(-c6ccc(OCCCC)cc6)c(-c6ccc(OCCCC)cc6)c5n3[B-](F)(F)[N+]2=C4)cc1`, the absorption maximum by setting is: (in C1CCOC1) 596 nm; (in CN(C)C=O) 593 nm; (in CS(C)=O) 594 nm; (in Cc1ccccc1) 608 nm; (in ClC(Cl)Cl) 610 nm; (in ClCCl) 606 nm.

In the case of `F[B-]1(F)Oc2ccccc2-c2cc(-n3c4ccccc4c4ccccc43)cc[n+]21`, under “in Cc1ccccc1”, the absorption maximum is listed as 366 nm.

In turn, `CC(=O)c1nc(-c2ccc(C)cc2)oc1C` displayed an absorption maximum (in CC#N) of 271 nm; an absorption maximum (in CCCCCC) of 272 nm; an absorption maximum (in CCO) of 271 nm; an absorption maximum (in CCOC(C)=O) of 273 nm; an absorption maximum (in CCOCC) of 271 nm; an absorption maximum (in ClCCl) of 271 nm.

`[O-][n+]1c(-c2ccc(Br)cc2)cc(N2CCOCC2)nc1/C=C/c1ccccc1` displayed an absorption maximum (in ClCCl) of 445 nm.

Take `C1=C(c2ccc(-c3cccs3)s2)CCC1`: the absorption maximum by setting is: (in C1CCOC1) 345 nm; (in CC#N) 342 nm; (in CCCCCC) 341 nm; (in CCO) 341 nm; (in OCCOCCO) 347 nm; (in c1ccncc1) 348 nm.

Consider `O=C1c2cc(-n3c4ccccc4c4ccccc43)ccc2S(=O)(=O)c2ccc(-n3c4ccccc4c4ccccc43)cc21`, for which the absorption maximum is, setting by setting: (in C1CCOC1) 406 nm; (in CCCCCC) 406 nm; (in Cc1ccccc1) 406 nm; (in ClC(Cl)Cl) 406 nm; (in ClCCl) 406 nm.

The compound `CN(C)c1ccc(N2c3sc4ccccc4c3Sc3sc4ccccc4c32)cc1` gave an absorption maximum (in ClCCl) of 319 nm.

In turn, `O=C(c1ccc(C(=C(c2ccccc2)c2ccccc2)c2ccccc2)cc1)c1ccc(-n2c3ccccc3c3ccccc32)cc1` displayed an absorption maximum (in C1CCOC1) of 340 nm.

Under “in ClC(Cl)Cl”, `CCn1c2ccccc2sc2c(C#N)c3[nH]c4ccccc4sc3c(C#N)c21` yielded an absorption maximum of 495 nm.

In turn, `CC(C)(C)C1Nc2c(Br)cc(Br)cc2C(=O)N1Cc1ccccc1` (configuration not stated) had an absorption maximum (in CC#N) of 360 nm; an absorption maximum (in CCCCCCCCCCCCCCCC) of 351 nm; an absorption maximum (in CO) of 368 nm; an absorption maximum (in ClC(Cl)Cl) of 359 nm; an absorption maximum (in c1ccccc1) of 356 nm.

Turning to `COC(=O)c1cc(=O)n(C)c2cc(-c3cc(OC)c(OC)c(OC)c3)sc12`, the absorption maximum by setting is: (in CC#N) 398 nm; (in ClCCl) 400 nm.

Consider `Cc1ccccc1C1=C2C=c3c(oc4ccccc34)=[N+]2[B-](F)(F)n2c1cc1c3ccccc3oc12`, for which the absorption maximum is, setting by setting: (in C1CCCCC1) 586.5 nm; (in CCOC(C)=O) 582 nm; (in CO) 580.5 nm.

On to `CCCCCCCCCCCCc1ccc(-c2cc(C)[o+]c(C)c2)cc1`, for which the absorption maximum reads like this: (in CC#N) 350 nm; (in ClCCl) 370 nm.

Turning to `Cc1ccc(N(c2ccc(C)cc2)c2ccc(Oc3nnc(Cl)nn3)cc2)cc1`, the absorption maximum (in ClCCl) is 523 nm.

Compound `Cc1cc(C)c(B(c2ccc(-n3c4ccccc4c4ccccc43)cc2)c2c(C)cc(C)cc2C)c(C)c1` came in with an absorption maximum (in Cc1ccccc1) of 360 nm.
